Source: publication PMC11480511 (Scientific Reports, 2024)

Columns and labels:
[1] = test system: P. aeruginosa ATCC 27,853; experiment: Antibacterial screening, agar cup diffusion method; type: cell-based; settings: Pseudomonas aeruginosa, ATCC27; Gram –ve strain; read-out: Minimum inhibitory concentrations (MIC, µM) P. aeruginosa ATCC 27,853
EKVX = experiment: NCI single-dose growth inhibition screen; type: cell-based; settings: Homo sapiens; Non-Small Cell Lung Cancer EKVX; single dose 10^−5 M
A498 = experiment: NCI single-dose growth inhibition screen; type: cell-based, human; settings: single dose 10^−5 M
LOX IMVI = experiment: NCI single-dose growth inhibition screen; type: cell-based, human; settings: Melanoma LOX IMVI, single dose 10^−5 M; for inhibition at 10 µM: Homo sapiens, LOX IMVI
SNB-75 = experiment: NCI single-dose growth inhibition screen; type: cell-based, human; settings: single dose 10^−5 M; for Growth Inhibition (%): CNS Cancer SNB-75; for inhibition at 10 µM: Homo sapiens, SNB-75, CNS Cancer SNB-75
SN12C = experiment: NCI single-dose growth inhibition screen; type: cell-based; settings: Homo sapiens; Renal Cancer SN12C; single dose 10^−5 M
786-0 = experiment: NCI single-dose growth inhibition screen; type: cell-based; settings: Homo sapiens; Renal Cancer 786-0; single dose 10^−5 M
human melanoma LOX IMVI = experiment: cells; settings: for IC50: read-out: In vitro cytotoxicity (IC50) LOX IMVI (µM ± SEM)
MDA-MB231 = experiment: NCI single-dose growth inhibition screen; type: cell-based; settings: Homo sapiens, MDA-MB-231; Breast Cancer MDA-MB231; single dose 10^−5 M
T-47D = experiment: NCI single-dose growth inhibition screen; type: cell-based; settings: Homo sapiens, T47D; Breast Cancer T-47D; single dose 10^−5 M
HOP-92 = experiment: NCI single-dose growth inhibition screen; type: cell-based; settings: Homo sapiens; Non-Small Cell Lung Cancer HOP-92; single dose 10^−5 M
SF-539 = experiment: NCI single-dose growth inhibition screen; type: cell-based; settings: Homo sapiens; CNS Cancer SF-539; single dose 10^−5 M
SR = experiment: NCI single-dose growth inhibition screen; type: cell-based; settings: Homo sapiens; Leukemia SR; single dose 10^−5 M
OVCAR-8 = experiment: NCI single-dose growth inhibition screen; type: cell-based; settings: Homo sapiens; Ovarian Cancer OVCAR-8; single dose 10^−5 M
HCT-116 = experiment: NCI single-dose growth inhibition screen; type: cell-based; settings: Homo sapiens; Colon Cancer HCT-116; single dose 10^−5 M
NCI-H23 = experiment: NCI single-dose growth inhibition screen; type: cell-based; settings: Homo sapiens; Non-Small Cell Lung Cancer NCI-H23; single dose 10^−5 M
CAKI-1 = experiment: NCI single-dose growth inhibition screen; type: cell-based; settings: Homo sapiens; Renal Cancer CAKI-1; single dose 10^−5 M
M14 = experiment: NCI single-dose growth inhibition screen; type: cell-based; settings: Homo sapiens; Melanoma M14; single dose 10^−5 M
Protocol: Following the guidelines established by the drug evaluation department of the National Cancer Institute (NCI), USA, all target compounds 3a–l were examined against 60 cancer cell lines at a single concentration of 10 µM.
The anti-cancer potential of the tested compounds was evaluated at the National cancer institute (NCI), USA, against 9 panels of 60 various cell lines derived from nine human tumours available usually at NCI library. The procedures for the screening were described in details in NCI website (dttp://www.dtp.nci.nih.gov.) and were done according to NCI protocols[60] . The anticancer screening was carried out at single dose of 10^−5 M, NCI, Bethesda, USA. The results obtained as growth inhibition (%).

TK-10 = experiment: NCI single-dose growth inhibition screen; type: cell-based; settings: Homo sapiens; Renal Cancer TK-10; single dose 10^−5 M
MOLT-4 = experiment: NCI single-dose growth inhibition screen; type: cell-based; settings: Homo sapiens; Leukemia MOLT-4; single dose 10^−5 M
RPMI-8226 = experiment: NCI single-dose growth inhibition screen; type: cell-based; settings: Homo sapiens; Leukemia RPMI-8226; single dose 10^−5 M
BT-549 = experiment: NCI single-dose growth inhibition screen; type: cell-based; settings: Homo sapiens; Breast Cancer BT-549; single dose 10^−5 M
NCI-H460 = experiment: NCI single-dose growth inhibition screen; type: cell-based; settings: Homo sapiens; Non-Small Cell Lung Cancer NCI-H460; single dose 10^−5 M
MALME-3 M = experiment: NCI single-dose growth inhibition screen; type: cell-based; settings: Homo sapiens; Melanoma MALME-3 M; single dose 10^−5 M
PC-3 = experiment: NCI single-dose growth inhibition screen; type: cell-based; settings: Homo sapiens; Prostate Cancer PC-3; single dose 10^−5 M
SNB-19 = experiment: NCI single-dose growth inhibition screen; type: cell-based; settings: Homo sapiens; CNS Cancer SNB-19; single dose 10^−5 M
SF-268 = experiment: NCI single-dose growth inhibition screen; type: cell-based; settings: Homo sapiens; CNS Cancer SF-268; single dose 10^−5 M
UACC-62 = experiment: NCI single-dose growth inhibition screen; type: cell-based; settings: Homo sapiens; Melanoma UACC-62; single dose 10^−5 M
ACHN = experiment: NCI single-dose growth inhibition screen; type: cell-based; settings: Homo sapiens; Renal Cancer ACHN; single dose 10^−5 M
[2] = test system: K. pneumoniae ATCC 10,031; experiment: Antibacterial screening, agar cup diffusion method; type: cell-based; settings: Klebsiella pneumoniae, ATCC10, Gram –ve strain; read-out: Minimum inhibitory concentrations (MIC, µM) K. pneumoniae ATCC 10,031
Protocol: Anti-bacterial activity of the recently synthesized compounds 3a-k was evaluated at AUMC (Assiut University Mycological Centre), Assiut, Egypt. Assays were done against Gram-negative strains of K. pneumoniae (ATCC 100310, E. coli (ATCC 25922), Pseudomonas aeruginosa (ATCC 27853) and the Gram-positive S. aureus (ATCC 6538) strain utilizing standard agar cup diffusion method. The isolates from the four bacterial species examined were kept in TSB (Trypticase Soya Broth, Becton and Dickinson) with 10% glycerol at -70 °C and then subcultured on TSA (Trypticase Soya Agar, Becton and Dickinson) and TSB for 24 h at 37 °C former to inoculation. Bacterial isolates were then plated on sterile petri plates with 1 × 10^8 CFU/mL (0.5 McFarland turbidity) and 20 mL of Mueller Hinton Agar media (Oxoid) was then loaded. To ensure that the microorganisms were evenly dispersed, the plates were gently rotated before being left to harden on a level surface. Four equally spaced spherical-shaped wells (10 mm diameter) were painstakingly drilled using a sterilized cork bore after media solidification. All tested compounds under test underwent two-fold serial dilutions in a sequential manner. Three replications of 100 µL of each concentration were added to a well using a micropipette. Plates were then incubated for 24-hour at 37 °C. The average of the inhibition zones was then calculated. To determine the MICs, the natural logarithm of each diluted test substance’s concentration was plotted against the average area of the related inhibition zone. Following that, a regression line was created and the intercept on the ‘ln concentration” axis was determined, and the antilogarithm was calculated to indicate the MIC value[34],[63].

MCF7 = experiment: NCI single-dose growth inhibition screen; type: cell-based, human; settings: Homo sapiens, MCF7, Breast Cancer MCF7; single dose 10^−5 M

O=C(O)c1cn(C2CC2)c2cc(N3CCN(C(=O)CCCN4C(=O)CSC4=O)CC3)c(F)cc2c1=O [3 L, 1-Cyclopropyl-7-(4-(4-(2,4-dioxothiazolidin-3-yl)butanoyl)piperazin-1-yl)-6-fluoro-4-oxo-1,4-dihydroquinoline-3-carboxylic acid] showed an MIC [1] of over 20 µM, an inhibition at 10 µM (EKVX) of 23.8% and an inhibition at 10 µM (A498; Homo sapiens, A498, Renal Cancer A498) of 45.1%. For the same compound, the “Growth Inhibition (%)” value (A498; Renal Cancer A498) was 45.1%, the inhibition at 10 µM (LOX IMVI) was 0% and the “Growth Inhibition (%)” value (LOX IMVI) was “- (- means no detected activity)”. For the same compound, the “Growth Inhibition (%)” value (SNB-75) was 51.1%, the inhibition at 10 µM (SNB-75) was 51.1% and the inhibition at 10 µM (SN12C) was 14.6%. The inhibition at 10 µM (786-0) was 4.8%, the viability at 0.4 µM (human melanoma LOX IMVI) was 84.8% and the viability at 1.6 µM (human melanoma LOX IMVI) was 78.9%. For the same compound, the viability at 25 µM (human melanoma LOX IMVI) was 59.8%, the viability at 100 µM (human melanoma LOX IMVI) was 49.1% and the IC50 (human melanoma LOX IMVI) was 109 ± 6.15 µM. For the same compound, the melting point was 230 °C, the inhibition at 10 µM (MDA-MB231) was 10.1% and the inhibition at 10 µM (T-47D) was under 0%. The inhibition at 10 µM (HOP-92) was 0.7%, the inhibition at 10 µM (SF-539) was 3.3% and the inhibition at 10 µM (SR) was under 0%. For the same compound, the inhibition at 10 µM (OVCAR-8) was under 0%, the inhibition at 10 µM (HCT-116) was under 0% and the inhibition at 10 µM (NCI-H23) was 5.7%. The inhibition at 10 µM (CAKI-1) was 22.7%, the inhibition at 10 µM (M14) was under 0% and the inhibition at 10 µM (TK-10) was 28.7%. The inhibition at 10 µM (MOLT-4) was under 0%, the inhibition at 10 µM (RPMI-8226) was 6% and the inhibition at 10 µM (BT-549) was 4.8%. For the same compound, the inhibition at 10 µM (NCI-H460) was 0%, the inhibition at 10 µM (MALME-3 M) was under 0% and the inhibition at 10 µM (PC-3) was 2.4%. It also gave an inhibition at 10 µM (SNB-19) of 0%, an inhibition at 10 µM (SF-268) of 15.1% and an inhibition at 10 µM (UACC-62) of 8.4%. The inhibition at 10 µM (ACHN) was 0.6%, the MIC [2] was over 20 µM and the inhibition at 10 µM (MCF7) was under 0%.
Compound O=C(O)c1cn(C2CC2)c2cc(N3CCN(C(=O)CCCN4C(=O)S/C(=C\c5ccc([N+](=O)[O-])cc5)C4=O)CC3)c(F)cc2c1=O [3k] has an MIC [1] of over 20 µM, an inhibition at 10 µM (EKVX) of 24.4% and an inhibition at 10 µM (LOX IMVI) of 8.88%. The “Growth Inhibition (%)” value (LOX IMVI) was 8.9%, the “Growth Inhibition (%)” value (SNB-75) was 42.5% and the inhibition at 10 µM (SNB-75) was 42.5%. The inhibition at 10 µM (SN12C) was 8.7%, the inhibition at 10 µM (786-0) was 14.1% and the viability at 0.4 µM (human melanoma LOX IMVI) was 110%. It also gave a viability at 1.6 µM (human melanoma LOX IMVI) of 102%, a viability at 25 µM (human melanoma LOX IMVI) of 80.2% and a viability at 100 µM (human melanoma LOX IMVI) of 65.4%. The IC50 (human melanoma LOX IMVI) was over 150 µM, the melting point was 299 to 300 °C and the inhibition at 10 µM (MDA-MB231) was 11.2%. It also gave an inhibition at 10 µM (T-47D) of under 0%, an inhibition at 10 µM (HOP-92) of 0.2% and an inhibition at 10 µM (SF-539) of 6%. The inhibition at 10 µM (SR) was 9.7%, the inhibition at 10 µM (OVCAR-8) was under 0% and the inhibition at 10 µM (HCT-116) was under 0%. For the same compound, the inhibition at 10 µM (NCI-H23) was 6.2%, the inhibition at 10 µM (CAKI-1) was 19.5% and the inhibition at 10 µM (M14) was under 0%. It also gave an inhibition at 10 µM (TK-10) of 33.5%, an inhibition at 10 µM (MOLT-4) of under 0% and an inhibition at 10 µM (RPMI-8226) of 8.7%. For the same compound, the inhibition at 10 µM (BT-549) was 1%, the inhibition at 10 µM (NCI-H460) was under 0% and the inhibition at 10 µM (MALME-3 M) was under 0%. For the same compound, the inhibition at 10 µM (PC-3) was under 0%, the inhibition at 10 µM (SNB-19) was under 0% and the inhibition at 10 µM (SF-268) was 13.3%. It also gave an inhibition at 10 µM (UACC-62) of 2%, an inhibition at 10 µM (ACHN) of 0.1% and an inhibition at 10 µM (MCF7) of under 0%.
